Structures are written as SMILES.

One assay relates to cccDNA in HepDES19 cells. Nature of the assay: cccDNA Southern Blot assay. The conditions noted are these: 5 days' compound treatment, FIG. 1. Type of assay: cell-based, HBV. On the procedure:
HepDES19 cells were seeded at 4*10^6 cells per T150 in the culture medium (Dulbecco's Modified Eagle Medium: Nutrient Mixture F-12 [DMEM-F12, Gibco Cat. 11320-82], 10% Fetal Bovine Serum [FBS, Clontech Cat. 631101], 0.1 mM Non-Essential Amino Acids Solution [NEAA, Gibco Cat. 11140-050], 50 μg/mL Penicillin-Streptomycin [PS, Invitrogen Cat. 15140-163], 500 μg/mL Geneticin [G418, Invitrogen Cat. 10131-027]) in the absence of Tet for 8 days. These cells were seeded at the density of 1×10^6 cells per well in 6-well plate. At 24 hours after seeding, serial dilutions of compounds made with DMSO (Sigma, Cat. D2650) were further diluted with the same culture medium as described above before they were added to the cells to reach desired final compound concentrations and 1% DMSO concentration. After 5 days' compound treatment, the cells growing in one well from 6-well plate were re-suspended with 500 μL re-suspension buffer (50 mM tris [hydroxymethyl]amino methane pH 7.5), 10 mM ethylenediaminetetraacetic acid (EDTA), 50 μg/mL RNase A [Qiagen, Cat. 158922], 500 μL of 1.2% sodium dodecyl sulfate (SDS) was then added into the re-suspended cells to lyse the cells. After 15 minutes' incubation, 700 μL precipitation buffer (3M cesium chloride, 1M potassium acetate, 0.67M acetic acid) was added and the lysate was incubated at 4° C. for 2 h. […]

Assay [1] concerns HBeAg (surrogate marker for cccDNA) in HepDES19 cells. Nature of the assay: Engineered HepDES19 primary screen assay (HBeAg ELISA). As to conditions: Hepatitis B virus, HepDES19, 120 h, read-out: IC50 (HBeAg level, HepDES19 primary screen assay), HepDES19 cells, 5 days compound incubation, HBeAg ELISA. Type of assay: cell-based, HBV. The method, boiled down:
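IC50 values come from 4-parameter logistic fits of HBeAg ELISA signal, the cccDNA surrogate, with CCK-8 run in parallel for viability. Compounds at half-log dilutions with 1% DMSO were applied for 5 days at 37 °C to HepDES19 cells previously cultured 8 days without Tet.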
(In an ELISA, binding on a coated surface is turned into a signal by an enzyme label.)

The IC50 is the concentration needed to halve the response being measured. On to `O=c1cc(-c2ccc(Br)cc2OCCO[C@H]2C[C@@H](C(=O)O)C2)oc2c(Cl)cccc12` [Example C003-A, Cis-3-[2-[5-bromo-2-(8-chloro-4-oxo-chromen-2-yl)phenoxy]ethoxy]cyclobutanecarboxylic acid], for which the “cccDNA level (Southern Blot)” value in the assay on cccDNA in HepDES19 cells is listed as “dose-dependently reduced cccDNA level”. The IC50 in assay [1] came to 1.07 µM.

For the origin of these results see US11708344B2, “Flavone derivatives for the treatment and prophylaxis of hepatitis B virus disease” (Hoffmann-La Roche Inc., priority 2018, dated 2023).
